Here are results for 30 compounds from patent publication US11999697B2, “Methods and compositions for inhibition of dihydroorotate dehydrogenase” (OHIO STATE INNOVATION FOUNDATION, priority 2018, dated 2024).

One data set relates to MOLM-13. Nature of the data set: MTS cell proliferation assay, MOLM-13. The format is cell-based. As to conditions: Homo sapiens, 96 hours. The method, then:
(§1) Triplicate wells were set up for each condition.
(§2) The assays were carried out in a blinded fashion.

Another data set concerns OCI-AML3. In words: MTS cell proliferation assay, OCI-AML3. The following applies: Homo sapiens. The format is cell-based. The method, then:
as §1, §2

The subject of a further data set is MV4-11. Nature of the data set: MTS cell proliferation assay, MV4-11. It is filed as cell-based. The following applies: for IC50: Homo sapiens, MV4-11, MTS.
A further data set deals with THP1. In words: MTS cell proliferation assay, THP1. As to conditions: Homo sapiens, THP-1, 96 hours. The format is cell-based. The method, then:
as §1, §2

The next data set has as its system HL-60. In words: MTS cell proliferation assay, HL-60. It is filed as cell-based. As to conditions: Homo sapiens, 96 hours. The method, then: as §1, §2
The target in a further data set is T1, DHODH (Homo sapiens, UniProt Q02127).
T1 construct: made in house
In words: DHODH enzymatic assay (DCIP reduction). It is filed as biochemical. The following applies: for DHODH inhibition, % inhibition: compound concentration not given; for IC50: range in parentheses, read-out: DHODH inhibition, IC50. The method, then: DHODH Enzymatic Assay: DHODH activity was determined at 25° C. following the reduction of 2,6-dichloroindophenol sodium salt (DCIP) at 600 nm (ε=18 800 M^−1 cm^−1) on a spectrophotometer. The reaction medium used contained 50 mM Tris-HCl, pH 8.0, 0.1% Triton X-100, 0.1 mM LDHO, 0.025 mM CoQ1, and 0.06 mM DCIP. The reaction was started by addition of the enzyme. The inhibitory potency of the compounds was evaluated by measuring the initial velocity of the reaction either in the absence or in the presence of the compounds at the indicated concentrations. The DHODH enzyme used was the recombinant human enzyme prepared as previously described (Helene Munier-Lehmann, et al., J. Med. Chem. 2015, 58:860-877).

Setting [1] is: OCI-AML-3, 96 hours, read-out: IC50 (μM) at 96 hours, OCI-AML3.
Setting [2] is: 96 hours, read-out: IC50 (μM) at 96 hours, MV4-11.
The mark [3] stands for this setting: OCI-AML-3, 96 hour, Table 6, read-out: 96 hour IC50 (nM) in OCI-AML-3 cell line.
Setting [4] is: 96 hour, Table 7, read-out: 96 hour IC50 (nM) in MV-411 cell line.

Where two headings read alike, the source gives them in different places.

T1 sequence (Q02127 whole entry): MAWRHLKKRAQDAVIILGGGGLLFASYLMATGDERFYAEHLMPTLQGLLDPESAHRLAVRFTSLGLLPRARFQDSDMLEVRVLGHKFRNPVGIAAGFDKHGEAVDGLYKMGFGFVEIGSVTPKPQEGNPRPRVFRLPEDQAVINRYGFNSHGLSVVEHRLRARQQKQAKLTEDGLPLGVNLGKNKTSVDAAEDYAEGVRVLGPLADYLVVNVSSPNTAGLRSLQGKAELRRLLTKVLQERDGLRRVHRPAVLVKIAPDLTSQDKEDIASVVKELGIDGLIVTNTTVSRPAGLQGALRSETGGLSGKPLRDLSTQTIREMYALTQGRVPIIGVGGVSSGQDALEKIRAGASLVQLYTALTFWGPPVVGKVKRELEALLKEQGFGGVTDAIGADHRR

In the case of `CC1=C(/C=C/C(C)=C/C=C/C(C)=C/C(=O)O)C(C)(C)CCC1` [ATRA, all-trans-retinoic acid, reference compound], the results for the IC50 in the data set with MOLM-13 and in the data set with OCI-AML3 (setting [1]) were 3.06 µM and 0.09 µM, respectively.

With `Cc1c(-c2ccc(-c3ccccc3F)cc2)nc2ccc(F)cc2c1C(=O)O` [BQR•Na, reference compound], the IC50 in the data set on MOLM-13 amounted to 0.48 µM; in the data set with MV4-11 (setting [2]), 0.49 µM; in the data set on THP1, 1 µM; with HL-60, 0.23 µM; with OCI-AML3 (setting [1]), 0.4 µM.

On to `Cc1c(-c2ccc(-c3ccccc3F)cc2)nc2ccc(F)cc2c1C(=O)O` [Brequinar, 6-fluoro-2-(2′-fluoro-1,1′-biphenyl-4-yl)-3-methyl-4-quinolinecarboxylic acid, reference compound], for which the “rescue of cytotoxic effects by uridine” value in the data set with MV4-11 (0.25 or 0.5 μM compound, uridine 0 to 200 μM, 96 hours) is reported as “rescued by growth in the presence of uridine”. Also, the IC50 in the data set on OCI-AML3 (setting [3]) was 0.314 µM.

In the case of `COc1ccc(-c2ccc(-c3cc(C(=O)O)c4cc(Cl)ccc4n3)cc2)cc1` [Cpd5, 6-chloro-2-(4′-methoxy-[1,1′-biphenyl]-4-yl)quinoline-4-carboxylic acid], the “DHODH inhibition, % inhibition” value at DHODH is 95%. The IC50 stood at 99 nM at DHODH; 3.02 µM in the data set on MOLM-13; 6.96 µM in the data set on MV4-11 (setting [2]); 7.84 µM with THP1; 20.9 µM in the data set with HL-60; 3.37 µM in the data set on OCI-AML3 (setting [1]).

For `O=C(O)c1cc(-c2ccc(-c3ccc(F)cc3)cc2)nc2ccc(Cl)cc12` [Cpd6, 6-chloro-2-(4′-fluoro-[1,1′-biphenyl]-4-yl)quinoline-4-carboxylic acid], the “DHODH inhibition, % inhibition” value at DHODH stood at 99%. Besides, the IC50 at DHODH was found to be 76 nM; in the data set on MOLM-13 it was 6.91 µM; with MV4-11 (setting [2]), 6.48 µM; in the data set on THP1, 10.4 µM; with HL-60 it was 3 µM; in the data set with OCI-AML3 (setting [1]), 6.25 µM.

`COc1ccc(-c2ccc(-c3cc(C(=O)O)c4cccc(F)c4n3)cc2)cc1` [Cpd8, 8-fluoro-2-(4′-methoxy-[1,1′-biphenyl]-4-yl)quinoline-4-carboxylic acid]: the IC50 with MOLM-13 is 6.76 µM; with MV4-11 (setting [2]), 7.54 µM; with THP1 it was 11.6 µM; in the data set on HL-60, 3.57 µM; with OCI-AML3 (setting [1]), 4.99 µM.

Take `Cc1c(-c2ccc(-c3ccc(F)cc3F)cc2)nc2c(F)cccc2c1C(=O)O` [Cpd14, 2-(2′,4′-difluoro-[1,1′-biphenyl]-4-yl)-8-fluoro-3-methylquinoline-4-carboxylic acid]: the IC50 in the data set on MOLM-13 was 8.63 µM; in the data set on MV4-11 (setting [2]) it was 14 µM; in the data set with THP1, 21.4 µM; with HL-60, 9.48 µM; in the data set with OCI-AML3 (setting [1]), 11.2 µM.

On to `CCOc1ccc(-c2ccc(-c3cc(C(=O)O)c4cccc(F)c4n3)cc2)cc1` [Cpd16, 2-(4′-ethoxy-[1,1′-biphenyl]-4-yl)-8-fluoroquinoline-4-carboxylic acid], for which the IC50 stood at 3.42 µM in the data set with MOLM-13; 6.23 µM in the data set with MV4-11 (setting [2]); 6.7 µM in the data set on THP1; 1.69 µM with HL-60; 2.9 µM in the data set on OCI-AML3 (setting [1]).

On to `O=C(O)c1cc(-c2ccc(-c3ccc(C(F)(F)F)cc3)cc2)nc2ccc(-c3ccc(F)cc3)cc12` [Cpd17, 6-(4-fluorophenyl)-2-(4′-(trifluoromethyl)-[1,1′-biphenyl]-4-yl)quinoline-4-carboxylic acid], for which the “DHODH inhibition, % inhibition” value on DHODH is 8%.

As for `Cc1c(-c2ccc(-c3ccc(F)cc3)cc2)nc2ccc(F)cc2c1C(=O)O` [Cpd18, 6-fluoro-2-(4′-fluoro-[1,1′-biphenyl]-4-yl)-3-methylquinoline-4-carboxylic acid], the IC50 in the data set on MOLM-13 turned out to be 6.76 µM; in the data set with MV4-11 (setting [2]), 6.86 µM; in the data set with THP1 it was 9.34 µM; in the data set on HL-60 it was 2.4 µM; with OCI-AML3 (setting [1]), 4.01 µM.

As for `COc1ccc(-c2ccc(-c3cc(C(=O)O)c4cc(F)ccc4n3)cc2)cc1` [Cpd20, 6-fluoro-2-(4′-methoxy-[1,1′-biphenyl]-4-yl)quinoline-4-carboxylic acid], the half-inhibitory concentration (IC50) in the data set with MV4-11 (setting [4]) was 0.69 µM.

As to `CCCOc1ccc(-c2ccc(-c3cc(C(=O)O)c4cc(F)ccc4n3)cc2)cc1` [Cpd21, 6-fluoro-2-(4′-propoxy-[1,1′-biphenyl]-4-yl)quinoline-4-carboxylic acid], the IC50 in the data set with MV4-11 (setting [4]) worked out at 0.06 µM.

Consider `CCCCOc1ccc(-c2ccc(-c3cc(C(=O)O)c4cc(F)ccc4n3)cc2)cc1` [Cpd22, 2-(4′-butoxy-[1,1′-biphenyl]-4-yl)-6-fluoroquinoline-4-carboxylic acid], for which the half-inhibitory concentration (IC50) in the data set with MV4-11 (setting [4]) stood at 0.036 µM; with OCI-AML3 (setting [3]) it was 0.155 µM.

In the case of `CCCCCCCOc1ccc(-c2ccc(-c3cc(C(=O)O)c4cc(F)ccc4n3)cc2)cc1` [Cpd23, 6-fluoro-2-(4′-(heptyloxy)-[1,1′-biphenyl]-4-yl)quinoline-4-carboxylic acid], the values for the IC50 in the data set with MV4-11 (setting [4]) and in the data set on OCI-AML3 (setting [3]) were 0.018 µM and 0.0906 µM, respectively.

In the case of `O=C(O)c1cc(-c2ccc(-c3ccccc3F)cc2)nc2ccc(F)cc12` [Cpd24, 6-fluoro-2-(2'-fluoro-[1,1′-biphenyl]-4-yl)quinoline-4-carboxylic acid], in the data set with OCI-AML3 (setting [3]), the concentration for half-maximal inhibition (IC50) was found to be 0.0495 µM.

Take `CC(C)Oc1ccc(-c2ccc(-c3cc(C(=O)O)c4cc(F)ccc4n3)cc2)cc1` [Cpd25, 6-fluoro-2-(4′-isopropoxy-[1,1′-biphenyl]-4-yl)quinoline-4-carboxylic acid]: in the data set on OCI-AML3 (setting [3]), the 50% inhibitory concentration (IC50) was 0.0676 µM.

As to `CC(C)COc1ccc(-c2ccc(-c3cc(C(=O)O)c4cc(F)ccc4n3)cc2)cc1` [Cpd26, 6-fluoro-2-(4′-isobutoxy-[1,1′-biphenyl]-4-yl)quinoline-4-carboxylic acid], the IC50 in the data set with OCI-AML3 (setting [3]) worked out at 0.0893 µM.

Consider `CCOc1ccccc1-c1ccc(-c2cc(C(=O)O)c3cc(F)ccc3n2)cc1` [Cpd27, 2-(2′-ethoxy-[1,1′-biphenyl]-4-yl)-6-fluoroquinoline-4-carboxylic acid], for which the IC50 with OCI-AML3 (setting [3]) was determined as 0.637 µM.

Regarding `CCOc1cccc(-c2ccc(-c3cc(C(=O)O)c4cc(F)ccc4n3)cc2)c1` [Cpd28, 2-(3′-ethoxy-[1,1′-biphenyl]-4-yl)-6-fluoroquinoline-4-carboxylic acid], the IC50 in the data set with OCI-AML3 (setting [3]) came out at 0.0209 µM.

For `CCCCCOc1ccc(-c2ccc(-c3cc(C(=O)O)c4cc(F)ccc4n3)cc2)cc1` [Cpd29, 6-fluoro-2-(4′-(pentyloxy)-[1,1′-biphenyl]-4-yl)quinoline-4-carboxylic acid], the IC50 in the data set on OCI-AML3 (setting [3]) is 0.0729 µM.

Turning to `CCCCCCOc1ccc(-c2ccc(-c3cc(C(=O)O)c4cc(F)ccc4n3)cc2)cc1` [Cpd30, 6-fluoro-2-(4′-(hexyloxy)-[1,1′-biphenyl]-4-yl)quinoline-4-carboxylic acid], the half-maximal inhibitory concentration (IC50) with OCI-AML3 (setting [3]) was found to be 0.0761 µM.

Regarding `CCCCCCCCOc1ccc(-c2ccc(-c3cc(C(=O)O)c4cc(F)ccc4n3)cc2)cc1` [Cpd31, 6-fluoro-2-(4′-(octyloxy)-[1,1′-biphenyl]-4-yl)quinoline-4-carboxylic acid], the IC50 in the data set with OCI-AML3 (setting [3]) worked out at 0.175 µM.

As to `CC(C)(C)Oc1ccc(-c2ccc(-c3cc(C(=O)O)c4cc(F)ccc4n3)cc2)cc1` [Cpd32, 2-(4′-(tert-butoxy)-[1,1′-biphenyl]-4-yl)-6-fluoroquinoline-4-carboxylic acid], in the data set with OCI-AML3 (setting [3]), the IC50 came out at 0.0503 µM.

In the case of `CC(C)CCOc1ccc(-c2ccc(-c3cc(C(=O)O)c4cc(F)ccc4n3)cc2)cc1` [Cpd33, 6-fluoro-2-(4′-(isopentyloxy)-[1,1′-biphenyl]-4-yl)quinoline-4-carboxylic acid], in the data set on OCI-AML3 (setting [3]), the 50% inhibitory concentration (IC50) was 0.0746 µM.

On to `CCOc1ccc(-c2ccc(-c3cc(C(=O)O)c4cc(F)ccc4n3)cc2)c(F)c1` [Cpd35, 2-(4′-ethoxy-2′-fluoro-[1,1′-biphenyl]-4-yl)-6-fluoroquinoline-4-carboxylic acid], for which the IC50 in the data set with OCI-AML3 (setting [3]) was 0.0877 µM.

As to `CCOc1ccc(-c2ccc(-c3cc(C(=O)O)c4cc(C(F)(F)F)ccc4n3)cc2)cc1` [Cpd36, 2-(4′-ethoxy-[1,1′-biphenyl]-4-yl)-6-(trifluoromethyl)quinoline-4-carboxylic acid], in the data set on OCI-AML3 (setting [3]), the 50% inhibitory concentration (IC50) was determined as 0.33 µM.

As to `COCc1cccc(-c2ccc(-c3cc(C(=O)O)c4cc(F)ccc4n3)cc2)c1` [Cpd37, 6-fluoro-2-(3′-(methoxymethyl)-[1,1′-biphenyl]-4-yl)quinoline-4-carboxylic acid], the IC50 with OCI-AML3 (setting [3]) is 0.864 µM.

In the case of `COCc1ccc(-c2ccc(-c3cc(C(=O)O)c4cc(F)ccc4n3)cc2)cc1` [Cpd38, 6-fluoro-2-(4′-(methoxymethyl)-[1,1′-biphenyl]-4-yl)quinoline-4-carboxylic acid], the half-inhibitory concentration (IC50) with OCI-AML3 (setting [3]) was 1.06 µM.

Regarding `COCc1ccccc1-c1ccc(-c2cc(C(=O)O)c3cc(F)ccc3n2)cc1` [Cpd39, 6-fluoro-2-(2'-(methoxymethyl)-[1,1′-biphenyl]-4-yl) quinoline-4-carboxylic acid], the 50% inhibitory concentration (IC50) in the data set with OCI-AML3 (setting [3]) was determined as 0.0964 µM.

Take `O=C(O)c1cc(-c2ccc(-c3ccc(Oc4ccccc4)cc3)cc2)nc2ccc(F)cc12` [Cpd40, 6-fluoro-2-(4′-phenoxy-[1,1′-biphenyl]-4-yl)quinoline-4-carboxylic acid]: the IC50 in the data set on MV4-11 (setting [4]) turned out to be 0.067 µM.
